Here are results for four compounds from patent publication US20050245440A1, “Regulation of a novel colon specific retinol dehydrogenase by apc and cdx2” (University of Utah Research Foundation, priority 2002, published 2005).

The structures appear in SMILES notation. “Also recorded” adds a separate entry of the source. Like-named read-outs stand apart in the source and are kept apart here.

One experiment has as its system colon cancer cells. The settings on record: cited from earlier work.
Experiment [1] relates to RA response genes in HT29 cells. The experiment can be described thus: Microarray analysis of RA response gene expression in HT29 cells. The format is cell-based, human. The source says:
(§1) Cell Culture and Drug Treatments.
(§2) Microarray Analysis. Slides were produced using a Generation m Microarray Spotter (Molecular Dynamics). Each microarray contained 4608 minimally redundant cDNAs spotted in duplicate on 3-aminopropyl-trimethoxy silane (Sigma) coated slides and UV crosslinked in a Stratalinker (Stratagene). The cDNA clones on the microarray were obtained from Research Genetics and Genome Systems. […] . Cultures were transferred to a multiscreen 96-well glass fiber filtration plate (Millipore) and growth medium voided. Twenty-five μl of 25 mM Tris-HCl, pH 8; 10 mM EDTA, 50 μl of 0.2N NaOH, 1% SDS and 160 μl of 0.7M potassium acetate, pH 4.8; 5.3M guanidine hydrochloride were added to each well of the glass filtration plate. Cell lysates were drawn through the glass filters under vacuum and filter-bound DNA was washed four times with 200 μl of 80% ethanol. Plasmid DNAs were eluted by centrifugation following the addition of 65 μl of distilled H2O. Samples were collected in a 96-well microtiter dish during centrifugation.
(§3) Generation of microarray probes, microarray hybridizations, and scanning Total RNA was isolated using Trizol reagent (Invitrogen) and poly-A RNA was selected using an Oligotex Kit (Qiagen). […]
(§4) Hybridizations were performed overnight at 42° C. in a humidified chamber. […] Fluorescent intensities were quantified using ArrayVision 4.0 (Imaging Research).

Experiment [2] has as its system RA response genes in HCT116 cells. The experiment in a line: Microarray analysis of RA response gene expression in HCT116 cells. The format is cell-based, human. Conditions: 5 μM 5-Aza-CdR.
Text: as §1, §2, §3, §4

The subject of experiment [3] is RDHL. The experiment can be described thus: Northern analysis of RDHL expression in HT29 cells. The format is cell-based, human. Conditions: 5 μM 5-Aza-CdR, cultured 6 days. The source says:
(§5) Cell Culture and Drug Treatments. […] Northern blotting.

The test system of experiment [4] is RDH5. The experiment in a line: Northern analysis of RDH5 expression in HCT116 cells. Conditions: 5-Aza-CdR. Format: cell-based, human.
Text: as §5

Experiment [5] relates to cdx2. The experiment in a line: Northern analysis of cdx2 expression in HT29 cells. Conditions: after 5-Aza-CdR. Format: cell-based, human.
Text: as §5

The subject of the next experiment is HT29 cells. Conditions: found previously (56); cited from earlier work.
The test system of the next experiment is HCT116 cells. The settings on record: following 5-Aza-CdR treatment; cited from earlier work.
The subject of experiment [6] is RDH5. The experiment in a line: Northern analysis of RDH5 expression in HT29 cells. Conditions: after 5-Aza-CdR treatment.
Experiment [7] has as its system RDHL. The experiment in a line: Northern analysis of RDHL in HT29 APC-inducible cells. The format is cell-based, human. Conditions: 100 μM ZnCl2 24 h vs water, normalized to GAPDH.
Text: as §5

Experiment [8] has as its system RDHL. The experiment in a line: Northern analysis of RDHL in HT29 β-galactosidase-inducible cells. The format is cell-based, human. The settings on record: HT29 β-galactosidase-inducible cells (negative control); 100 μM ZnCl2 24 h vs water.
Text: as §5

The subject of experiment [9] is cdx2. The experiment can be described thus: Northern analysis of cdx2 in HT29 APC-inducible cells. The format is cell-based, human. Conditions: 100 μM ZnCl2 24 h, data not shown.
Text: as §5

`CC(=O)[C@H]1CC[C@H]2[C@@H]3CCC4=CC(=O)CC[C@]4(C)[C@H]3CC[C@]12C` [progesterone]: the “cell growth of colon cancer cells” value in the experiment with colon cancer cells (one study (86)) is on record as “failed to affect cell growth”.

Take `C[C@]12CC[C@H]3[C@@H](CCC4=CC(=O)CC[C@@]43C)[C@@H]1CC[C@@H]2O` [testosterone]: the figures for the “cell growth of colon cancer cells” value with colon cancer cells (another group (87)) and with colon cancer cells (one study (86)) were “increased cell growth” and “failed to affect cell growth”, respectively.

With `Nc1ncn([C@H]2C[C@H](O)[C@@H](CO)O2)c(=O)n1` [5-Aza-CdR, 5-aza-2′-deoxycytidine], the “RA responsiveness of RA response genes” value in [1] (5 μM 5-Aza-CdR 10 days, then 1 μM RA 24 h) is “conferred RA responsiveness”. Also, the “RA response gene expression” value in experiment [1] (5 μM 5-Aza-CdR on day 0, cultured 10 days, microarray vs PBS/ethanol) is given as “enhances”; in experiment [2], “not induced”. Also, in the experiment on RDHL [3], the RDHL expression result is on record as “expression of RDHL only after treatment with 5-Aza-CdR; also recorded: re-expressed”. Moreover, the RDH5 expression entry in the experiment with RDH5 [4] is given as “no effect”. In addition, the cdx2 expression entry with cdx2 [5] is recorded as “induction of cdx2”. Also, the “differentiation and differentiation markers” value with HT29 cells was “stimulates biological aspects of differentiation and the appearance of differentiation markers”. Further, the markers of differentiation entry in the experiment with HCT116 cells is on record as “few markers of differentiation”. In the experiment on RDH5 [6], the RDH5 levels entry was “slightly increased; also recorded: re-expressed”.

On to `[Cl-].[Cl-].[Zn+2]` [ZnCl2], for which the “fold RDHL induction” value is on record as 3.2 fold in the experiment with RDHL [7] and 1.2 fold in the experiment on RDHL [8]. For the same compound, in the experiment with cdx2 [9], the “cdx2 induction after re-introduction of APC” value was “no cdx2 induction”.
